We go through 42 compounds from the C3SDB collision cross section collection.

For series [1] the following is noted: instrument: DT, single field, calibrated with Agilent tune mix (Agilent).
The conditions of series [2]: instrument: DT, single field, calibrated with ESI Low Concentration Tuning Mix (Agilent).
The conditions of series [3]: [M+H]+; instrument: TW; calibrated with polyalanine and drug standards.

Values joined by “and” are separate entries in the source; they are usually repeats but may differ in a detail not shown here. Identical values can stand only once.

Regarding `CCCCCCC(N)C(=O)O` (racemic) [DL-2-Aminooctanoic acid], the figures for the “collision cross section (N2)” value in series [1] ([M+H]+) and in series [1] ([M-H]-) were 147.1 Å² and 141.62 Å², respectively.
For the compound `O=C(O)C(O)Cc1ccccc1` (racemic) [DL-3-Phenyllactic acid], the “collision cross section (N2)” value in series [1] ([M+H]+) amounted to 137.8 Å²; in series [1] ([M-H]-) it was 134.74 Å².
In the case of `N[C@@H](CCSSCC[C@H](N)C(=O)O)C(=O)O` (racemic) [DL-Homocystine], the results for the “collision cross section (N2)” value in series [1] ([M+H]+) and in series [1] ([M+Na-2H]-) were 157.9 Å² and 152.2 Å², respectively.
As to `COc1cc(C(O)C(=O)O)ccc1O` (racemic) [DL-Vanillylmandelic acid], the entries for the “collision cross section (N2)” value in series [1] ([M+H-H2O]+) and in series [1] ([M-H]-) were 133.3 Å² and 140.9 Å², respectively.
In the case of `Cn1c(=O)c2[nH]c(=O)[nH]c2n(C)c1=O` [1,3-Dimethyluric acid], the results for the “collision cross section (N2)” value in series [1] ([M+H]+) and in series [1] ([M-H]-) were 142.5 Å² and 134.24 Å², respectively.
With `Cn1cnc2c(ncn2[C@@H]2O[C@H](CO)[C@@H](O)[C@H]2O)c1=N` [1-Methyladenosine], the “collision cross section (N2)” value in series [1] ([M+H]+) worked out at 164.2 Å²; in series [1] ([M-H]-) it was 159.21 Å².
`Cn1c(=O)[nH]c2nc[nH]c2c1=O` [1-Methylxanthine]: in series [1] ([M-H]-), the “collision cross section (N2)” value stood at 124.23 Å².
For the compound `CCCCCCCCCCCCCCCCCC(=O)OC[C@@H](O)CO` [1-Stearoyl-sn-glycerol], the “collision cross section (N2)” value in series [1] ([M+H-H2O]+) was determined as 199.6 Å².
As for `Nc1ncnc2c1ncn2[C@H]1C[C@H](O)[C@@H](COP(=O)(O)OP(=O)(O)OP(=O)(O)O)O1` [2'-Deoxyadenosine 5'-triphosphate], in series [1] ([M-H]-), the “collision cross section (N2)” value worked out at 183.78 Å².
Regarding `Nc1nc(=O)c2ncn([C@H]3C[C@H](O)[C@@H](COP(=O)(O)OP(=O)(O)O)O3)c2[nH]1` [2'-Deoxyguanosine 5'-diphosphate], the “collision cross section (N2)” value in series [1] ([M-H2O-H]-) was 174.28 Å².
With `O=c1ccn([C@H]2C[C@H](O)[C@@H](CO)O2)c(=O)[nH]1` [2'-Deoxyuridine], the “collision cross section (N2)” value was found to be 156 Å² in series [1] ([M+Na]+) and 145.91 Å² in series [1] ([M-H]-).
`O=C(O)c1cccc(O)c1O` [2,3-Dihydroxybenzoic acid]: the “collision cross section (N2)” value in series [1] ([M-H]-) is recorded as 118.42 Å².
On to `CCCCCCCC/C=C/CCCCCCCC(=O)O[C@H](COC(=O)CCCCCCCCCCCCCCC)COP(=O)([O-])OCC[N+](C)(C)C` [2-Oleoyl-1-palmitoyl-sn-glycero-3-phosphocholine], for which the “collision cross section (N2)” value in series [1] ([M+H]+) is listed as 286.7 Å²; in series [1] ([M-H]-) it was 272.17 Å².
Consider `Nc1ncnc2c1ncn2[C@@H]1O[C@H](COP(=O)(O)OS(=O)(=O)O)[C@@H](OP(=O)(O)O)[C@H]1O` [3'-Phosphoadenosine 5'-phosphosulfate], for which the “collision cross section (N2)” value in series [1] ([M-H]-) came out at 192.76 Å².
Same read-out and setting: the same measure for `O=C(O)CCc1ccc(O)c(O)c1` [3,4-Dihydroxyhydrocinnamic acid]: 133.05 Å².
With `O=C(O)C(O)c1ccc(O)c(O)c1` (configuration not stated) [3,4-Dihydroxymandelic acid], the “collision cross section (N2)” value was 132 Å² in series [1] ([M+H-H2O]+) and 135 Å² in series [1] ([M-H]-).
Regarding `CN1CC(=O)N=C1N` [CREATININE], the “collision cross section (N2)” value came out at 123.2 Å² in series [2] ([M+H]+), 132.8 Å² in series [2] ([M+Na]+), 118.5 Å² in series [2] ([M-H]-) and 120.2 Å² in series [3].
Regarding `N[C@H]1C(O)O[C@H](CO)[C@@H](O)[C@@H]1O` (some centres not stated) [GLUCOSAMINE], the “collision cross section (N2)” value in series [2] ([M+H]+) was 138.1 Å² and 141.4 Å²; in series [2] ([M+Na]+), 143.5 Å² and 146.5 Å²; in series [3], 145.2 Å².
With `Nc1ccccc1C(=O)CC(N)C(=O)O` (configuration not stated) [KYNURENINE], the “collision cross section (N2)” value is 149.3 Å² and 149.6 Å² in series [2] ([M+H]+); 152.8 Å² and 153.1 Å² in series [2] ([M+Na]+); 146 Å² in series [3].
For the compound `Cc1ncc(CO)c(CO)c1O` [PYRIDOXINE], the figures for the “collision cross section (N2)” value in series [2] ([M+H]+), in series [2] ([M-H]-) and in series [3] were 134.4 Å², 132.4 Å² and 132.3 Å², respectively.
The matching figures for `Cc1cc2nc3c(=O)[nH]c(=O)nc-3n(C[C@H](O)[C@H](O)[C@H](O)CO)c2cc1C` [RIBOFLAVIN]: 188.5 Å², 186.1 Å² and 184.9 Å².
Turning to `NC(=O)c1ccccc1O` [SALICYLAMIDE], the “collision cross section (N2)” value in series [2] ([M+H]+) came to 124.4 Å²; in series [2] ([M-H]-) it was 121.1 Å²; in series [3], 122.2 Å².
Turning to `NCC[Se][Se]CCN` [SELENOCYSTAMINE], the “collision cross section (N2)” value was 135.6 Å² in series [2] ([M+H]+) and 138.6 Å² in series [2] ([M+Na]+).
As for `OC[C@@H](O)[C@@H](O)[C@H](O)[C@@H](O)CO` [SORBITOL], the entries for the “collision cross section (N2)” value in series [2] ([M+Na]+) and in series [2] ([M-H]-) were 142.9 Å² and 131.4 Å², respectively.
For the compound `OCC1(O)OC[C@H](O)[C@@H](O)[C@@H]1O` (some centres not stated) [SORBOSE], in series [2] ([M+Na]+), the “collision cross section (N2)” value was 139.4 Å² and 143.3 Å².
For `NCCCCNCCCN` [SPERMIDINE], the “collision cross section (N2)” value in series [2] ([M+H]+) was 131.4 Å² and 131.6 Å²; in series [2] ([M+Na]+), 136.1 Å² and 136.5 Å².
Turning to `OC[C@H]1O[C@H](OC[C@H]2O[C@H](OC[C@H]3O[C@H](O[C@]4(CO)O[C@H](CO)[C@@H](O)[C@@H]4O)[C@H](O)[C@@H](O)[C@@H]3O)[C@H](O)[C@@H](O)[C@H]2O)[C@H](O)[C@@H](O)[C@H]1O` [STACHYOSE], the “collision cross section (N2)” value in series [2] ([M+Na]+) is recorded as 235.1 Å²; in series [2] ([M-H]-), 224.1 Å².
In the case of `NCCS(=O)(=O)O` [TAURINE], the “collision cross section (N2)” value was 128.2 Å² and 134.2 Å² in series [2] ([M+H]+); 118.4 Å² in series [2] ([M-H]-).
As for `CSc1ncnc2nc[nH]c12` [THIOPURINE S-METHYLETHER], the “collision cross section (N2)” value in series [2] ([M+H]+) is recorded as 129.8 Å²; in series [2] ([M+Na]+), 145.1 Å²; in series [2] ([M-H]-), 127.7 Å².
Turning to `Cc1cn([C@H]2C[C@H](O)[C@@H](CO)O2)c(=O)[nH]c1=O` [THYMIDINE], the “collision cross section (N2)” value in series [2] ([M+Na]+) is on record as 161.6 Å²; in series [2] ([M-H]-) it was 154.1 Å².
For the compound `Cc1c[nH]c(=O)[nH]c1=O` [THYMINE], the results for the “collision cross section (N2)” value in series [2] ([M+H]+) and in series [2] ([M-H]-) were 122.1 Å² and 119 Å², respectively.
As to `NC(=O)[C@@H]1CCCN1C(=O)[C@H](Cc1cnc[nH]1)NC(=O)[C@@H]1CCC(=O)N1` [THYROTROPIN RELEASING HORMONE], the “collision cross section (N2)” value came to 179.2 Å² in series [2] ([M+H]+), 183.2 Å² in series [2] ([M+Na-2H]-), 182.4 Å² in series [2] ([M+Na]+) and 184.5 Å² in series [2] ([M-H]-).
As to `OC[C@H]1O[C@H](O[C@H]2O[C@H](CO)[C@@H](O)[C@H](O)[C@H]2O)[C@H](O)[C@@H](O)[C@@H]1O` [TREHALOSE], the entries for the “collision cross section (N2)” value in series [2] ([M+K]+), in series [2] ([M+Na]+) and in series [2] ([M-H]-) were 179.7 Å², 175.7 Å² and 169.9 Å², respectively.
`CCCCCCCCCCCCCCCCCCCCCCC(=O)[O-]` [TRICOSANOATE]: the “collision cross section (N2)” value in series [2] ([M+Na]+) was determined as 204.8 Å²; in series [2] ([M-H]-), 196.9 Å².
Turning to `N[C@@H](Cc1c[nH]c2ccccc12)C(=O)O` [TRYPTOPHAN], the “collision cross section (N2)” value is 150.1 Å² and 150.3 Å² in series [2] ([M+H]+); 147.6 Å² and 147.7 Å² in series [2] ([M+Na]+); 142.3 Å² and 142.5 Å² and 151.5 Å² in series [2] ([M-H]-).
In the case of `NC(=O)NCCC(=O)O` [UREIDOPROPIONATE], the “collision cross section (N2)” value in series [2] ([M+Na]+) worked out at 132.4 Å².
For the compound `CC(=O)NC1C(OP(=O)(O)OP(=O)(O)OCC2OC(n3ccc(=O)[nH]c3=O)C(O)C2O)OC(CO)C(O)C1O` (configuration not stated) [URIDINE DIPHOSPHATE-N-ACETYLGALACTOSAMINE], the “collision cross section (N2)” value in series [2] ([M+H]+) is 216.2 Å²; in series [2] ([M+Na-2H]-), 228.2 Å²; in series [2] ([M+Na]+) it was 218.1 Å²; in series [2] ([M-H]-) it was 223.9 Å².
The matching figures for `CC(=O)N[C@H]1[C@H](OP(=O)(O)OP(=O)(O)OC[C@H]2O[C@@H](n3ccc(=O)[nH]c3=O)[C@H](O)[C@@H]2O)O[C@H](CO)[C@@H](O)[C@@H]1O` [URIDINE DIPHOSPHATE-N-ACETYLGLUCOSAMINE]: 210.5 Å², 227.9 Å², 218.1 Å² and 224 Å².
The like results for `O=c1ccn([C@@H]2O[C@H](COP(=O)(O)O)[C@@H](O)[C@H]2O)c(=O)[nH]1` [URIDINE MONOPHOSPHATE] were, in that order, 165.7 Å², 163.6 Å², 172.3 Å² and 161.2 Å².
In the case of `O=C(O)/C=C/c1cnc[nH]1` [UROCANATE], the “collision cross section (N2)” value in series [2] ([M+H]+) was 134.6 Å²; in series [2] ([M-H]-), 120.9 Å².
In the case of `CC(C)[C@H](N)C(=O)O` [VALINE], the “collision cross section (N2)” value is 120.9 Å² in series [2] ([M+H]+), 133.4 Å² in series [2] ([M+Na]+) and 124.3 Å² in series [2] ([M-H]-).
On to `O=c1[nH]c(=O)c2ncn([C@@H]3O[C@H](CO)[C@@H](O)[C@H]3O)c2[nH]1` [XANTHOSINE], for which the “collision cross section (N2)” value in series [2] ([M+H]+) is 162 Å²; in series [2] ([M+K]+), 173 Å²; in series [2] ([M+Na-2H]-), 161.9 Å²; in series [2] ([M+Na]+) it was 173.3 Å²; in series [2] ([M-H]-) it was 158.3 Å².
